Source: patent US20130072899A1, “Pharmaceutical Formulations for Iontophoretic Delivery of Gallium” (Nitric BloTherapeutics, Inc., priority 2008, published 2013)

What was measured:
[1] = 25° C., 0.01M; cited from earlier work
[2] = Effect of pH on skin permeability (tritiated water permeation, Franz cells); type: in vitro ADME, human; conditions: 70 h passive permeation

Compound | Log β (stability constant) [1] | average radioactive count in the receiver compartment ([2]; pH 2) [DPM/mL] | average radioactive count in the receiver compartment ([2]; pH 5) [DPM/mL]
[OH][Ga-]([OH])([OH])[OH] [Ga(OH)4^−] | −15.66 |  | 
[OH][Ga+2] [GaOH^++] | −2.9 |  | 
[Ga+3].[OH-].[OH-].[OH-] [Ga(OH)3] | −11.0 |  | 
[3H]O[3H] [tritiated water, Tritiated water] |  | 55860±25106 | 60557±20376
[OH][Ga+][OH] [Ga(OH)2^+] | −6.6 |  | 
O=C([O-])CC(O)(CC(=O)[O-])C(=O)[O-].[Ga+3] [Ga citrate] | 10.02 |  | 
